Data from paper PMC8419835.

Assay: Head-to-tail amide by intramolecular native chemical ligation: N,S-acyl shift of a C-terminal N-2-[thioethyl]glycine residue on TentaGel, transthioesterification with 50 equiv external thiol (MESNa or MPAA), then attack by N-terminal Cys and S,N-acyl shift, one pot
Conditions: the molecule shown is the open-chain precursor, aqueous: procedure B citrate pH 3 then phosphate pH 7.4 (DTT), procedure C 1 M TEAB pH 7.0 (MPAA, DTT), resin, 48.0 h, 2 steps

## C[C@H](NC(=O)[C@H](CCCCN)NC(=O)[C@@H]1CCCN1C(=O)CNC(=O)[C@H](Cc1ccccc1)NC(=O)[C@@H](N)CS)C(=O)SCCS(=O)(=O)O
18-membered ring
  ring closure, yield over several steps: 25.8%

## C[C@@H](O)[C@H](NC(=O)[C@H](Cc1ccccc1)NC(=O)[C@@H]1CCCN1C(=O)[C@H](CC(N)=O)NC(=O)[C@@H]1CCCN1C(=O)[C@H](Cc1ccccc1)NC(=O)[C@@H](N)CS)C(=O)Sc1ccc(CC(=O)O)cc1
21-membered ring
  ring closure, yield over several steps: 55%

## C[C@H](NC(=O)[C@H](CCCCN)NC(=O)[C@@H]1CCCN1C(=O)[C@@H](N)CS)C(=O)SCCS(=O)(=O)O
12-membered ring
  ring closure, yield over several steps: 24.1%

## H-Cys-Thr-Lys-Ser-Ile-Pro-Pro-Ile-Cys-Phe-Pro-Asp-Gly-Arg-[N-2-(thioethyl)Gly]-linker-TentaGel (linker Ala-Ala-Met or bAla-Ala-bAla-Met, text inconsistent; side chains unprotected, both Cys as free SH; via MPAA thioester)
42-membered ring
  ring closure, yield over several steps: 40%

## H-Cys-Arg-Cys-Leu-Cys-Arg-Arg-Gly-Val-Cys-Arg-Cys-Ile-Cys-Thr-Arg-Gly-Phe-[N-2-(thioethyl)Gly]-linker-TentaGel (linker Ala-Ala-Met or bAla-Ala-bAla-Met, text inconsistent; side chains unprotected, all Cys as free SH; via MPAA thioester)
54-membered ring
  ring closure, yield over several steps: 39%
